Read-outs that look alike come from different tables or passages of the source.
Columns and labels:
[1] = system: T. cruzi Tulahuen strain expressing β-galactosidase; assay: T. cruzi primary screening at three fixed concentrations; type: cell-based
Experimental: T. cruzi parasites from the Tulahuen strain (discrete typing unit (DTU) VI) expressing β-galactosidase were maintained in culture by the infection of LLC-MK2 cells in DMEM supplemented with 2% FBS and 1% penicillin–streptomycin–glutamine (PSG), as described in [52]. When free-swimming trypomastigotes were released to the culture medium, they were centrifuged for 7 min at 2500 rpm and allowed to swim out of the pellet. Trypomastigotes were used to maintain the parasite cycle, or for the performance of the antiparasitic assays.
[…] Conditions were tested in triplicate for every concentration. Z-values varied between 0.81 and 0.92 in the different plates analyzed. Selected compounds (34.6% potential hit rate) were further analyzed via standard growth inhibition assays. The Z-values of dose–response assays correlated with those previously reported. For both assays, Vero cells and trypomastigotes from the Tulahuen T. cruzi strain expressing β-galactosidase were harvested, centrifuged, and resuspended in DMEM without phenol red supplemented with 1% PSG, 2% FBS, 1 mM sodium pyruvate, and 25 mM HEPES. Vero cells and trypomastigotes were counted, diluted at a concentration of 1 × 10^6 cells/mL each, and mixed 1:1 (v/v). Then, 100 μL of that mixture was added per well to the plates already containing the compounds. Each well contained 50,000 host cells and 50,000 parasites, i.e., multiplicity of infection (MOI) = 1. BNZ was used as control of maximal drug growth inhibition in each round, whereas each plate contained its own negative control (maximum parasite growth; Vero cells plus parasites without drugs) and positive control (minimum parasite growth; trypomastigote forms alone marking an enzymatic zero time or baseline galactosidase activity). After four days at 37 °C, 50 µL of a PBS solution containing 0.25% NP40 and 500 µM chlorophenol red-β-D-galactopyranoside (CPRG) substrate were added per well [32]. Plates were incubated at 37 °C for 4 h, and their absorbance read out at 590 nm using an Epoch Gene5 spectrophotometer.
(§1) Absorbance values derived from the anti-T. cruzi assays and fluorescence values from the anti-P. falciparum and cell toxicity assays were normalized to the controls. In the primary screening at three fixed doses, the compounds’ inhibitory activity was expressed as a percentage of the negative control (100% parasitic growth). In dose–response assays, the compounds’ IC50 and TC50 values were determined with GraphPad Prism 7 software (version 7.00, 2016), using a non-linear regression analysis model defined by the following equation: Y=100 ÷(1+10^((LogIC50−X)×HillSlope))

[2] = system: T. cruzi intracellular amastigotes; assay: Antiamastigote growth inhibition assay; type: cell-based; details: intracellular amastigotes in Vero cells, mean (SD), read-out: T. cruzi IC50 b (antiamastigote assay)
Experimental: Vero cells were seeded in T-175 flasks (5 × 10^6 cells per flask) in DMEM supplemented with 1% penicillin–streptomycin and 10% FBS, and cultured for 24 h. Then, cells were washed once with PBS, and free-swimming trypomastigotes (1 × 10^7 trypomastigotes per flask; MOI = 1) in assay medium were added and allowed 18 h to infect. After that, infected cell monolayers were washed with PBS and detached. Cells were counted and diluted to a concentration of 5 × 10^5 cells per mL, before adding 100 µL per well to test plates already containing the drugs dispensed as described above. In all cases, we included BNZ as control drug, and each plate contained its own negative (Vero cells and parasites) and positive (Vero cells) controls.
as §1

HepG2 cells = assay: HepG2 cell toxicity assay (alamarBlue); type: cell-based, human; details: 2 days; minimum value of the 95% CI, except BNZ (mean (SD))
Experimental: Human erythrocytes were purified from B+ Rh+ blood samples and maintained at 4 °C in incomplete RPMI medium. Vero (green monkey kidney epithelial cells), LLC-MK2 (Rhesus monkey kidney epithelial cells), and HepG2 (human liver epithelial cells) cultures were cultivated in DMEM supplemented with 1% penicillin–streptomycin (PS) and 10% heat-inactivated fetal bovine serum (FBS) at 37 °C, 5% CO2, and >95% humidity, as described in [31]. HepG2 cells were also supplemented with 10% non-essential amino acids. Vero and MK2 cells were passaged twice per week at 1:12 ratios, while HepG2 cells were passaged at a 1:8 ratio.
Vero and HepG2 cells were detached, centrifuged, and resuspended in DMEM without phenol red. Cell viability was checked upon cell counting with trypan blue staining. Then, Vero and HepG2 cells were diluted at a concentration of 5 × 10^5 and 3.2 × 10^5 cells per mL, respectively, before adding 100 µL per well to the 96-well plate. Each run contained its own negative (untreated cells) and positive (medium alone) controls. Plates were incubated at 37 °C for 4 days in the case of Vero, or 2 in the case of HepG2 cells. Assay readout was made by adding 50 µL per well of a PBS solution containing 10% alamarBlue reagent (Thermo Fisher Scientific); then, plates were incubated for another 6 h at 37 °C, before recording the fluorescence intensity with a Tecan Infinite M Nano+ reader (excitation: 530 nm, emission: 590 nm).
as §1

P. falciparum 3D7 = assay: P. falciparum dose-response growth inhibition assay (FACS, SYTO 11); type: cell-based; details: P. falciparum 3D7, 48 h, mean (SD)
Experimental: Apicomplexan parasite cultures were maintained at 3% hematocrit under an atmosphere of 37 °C in 93% N2, 5% CO2, and 2% O2, following standard methods. Synchronized cultures were obtained via 5% sorbitol lysis.
P. falciparum growth was primarily analyzed under 3 different concentrations ([…]) of the 81 compounds. Conditions were tested in triplicate for every concentration, and the test was repeated when the standard deviation was above 10% for any concentration. Z-values varied between 0.83 and 0.98 in the different plates analyzed. Selected compounds (12.3% potential hit rate) were further analyzed via standard growth inhibition assays, carried out as previously described in [54]. Briefly, parasitemia was adjusted to 1–1.3%, with >90% rings after sorbitol synchronization. Two hundred microliters of parasite culture were plated in 96-well microplates and incubated for 48 h at 37 °C in the presence of decreasing concentrations of the tested compounds, in triplicate. Parasitemia was determined by fluorescence-assisted cell sorting (FACS). Non-infected RBCs and samples containing parasitized RBCs (including controls with DMSO as carrier solvent) were diluted in PBS to a final concentration of ~1–10 × 10^6 cells/mL. The cell suspension was stained with SYTO 11 (0.5 mM stock in DMSO, Thermo Fisher Scientific, Waltham, MA, USA), to a final concentration of 0.5 μM. Samples were analyzed in a Becton Dickinson FACSCalibur. Sample excitation was carried out using a 488-nm, air-cooled argon-ion laser at a power of 15 mW, using forward and side scatter to gate the RBC population, and SYTO 11 green fluorescence (530 nm, FITC filter) was collected in a logarithmic scale. The single-cell population was selected on a forward–side scattergram, and the green fluorescence from this population was analyzed. Parasitemia was expressed as the number of parasitized cells per 100 erythrocytes.
as §1

[3] = compound at 10 µM, average of at least three independent experiments

Structure (SMILES) | activity at 100 µM ([1]; Trypanosoma cruzi, TULAHUEN, read-out: Primary screening, growth inhibition values at 100 µM) | activity at 1 µM ([1]; Trypanosoma cruzi, TULAHUEN, compound at 1 µM, average of at least three independent experiments, read-out: Primary screening, growth inhibition values at 1 µM) | activity at 10 µM ([1]; Trypanosoma cruzi, TULAHUEN, compound at 10 µM, average of at least three independent experiments, read-out: Primary screening, growth inhibition values at 10 µM) | IC50 ([2]; Trypanosoma cruzi) | HepG2 Cells TC50 (HepG2 cells) | Primary screening, growth inhibition values at 10 µM [1, 3] | IC50 (P. falciparum 3D7; Plasmodium falciparum, 3D7, 48 h) | IC50 (P. falciparum 3D7) | IC50 [2]
COC(=O)c1ccccc1-n1cc(COc2ncnc3c2nc(-c2ccccc2)n3N(C)C)nn1 [Compound 34] | 13.9% | 68% | 66.9% | 4.24 µM |  |  |  |  | 
CC(C)(C)n1c(-c2ccccc2)nc2c(OCc3ccccc3)ncnc21 [Compound 6D] |  |  |  | 3.78 µM | >200 µM | 84.14 | 18.9 µM |  | 
c1ccc(CCn2c(-c3ccccc3)nc3c(OCc4ccccc4)ncnc32)cc1 [Compound 6g] |  |  |  |  | >300 µM | 87.76 |  | 19.1 µM | 19.6 µM
